Laboratory results taken from US7560482B2, “Inhibitors of plasmepsins” (The Johns Hopkins University, priority 2001, dated 2009).
Where two headings read alike, the source gives them in different places.

Legend:
[1] = system: chloroquine-sensitive Plasmodium falciparum (NF54); experiment: malaria-infected human red blood cell assay, [3H]hypoxanthine incorporation; assay type: cell-based; settings: P. falciparum NF54, 48 h + 20 h incubation; read-out: IC50, killing of malaria parasite in infected red blood cell assay
Description: The ability of some KNI compounds to kill the malaria parasite was evaluated by measuring the IC50 in a malaria-infected human red blood cell assay. Activity was determined by measuring the incorporation of [^3H]hypoxanthine. Briefly, chloroquine-sensitive Plasmodium falciparum (NF54) were maintained in a 2.4% suspension of type O^+ human erythrocytes in RPMI 1640, supplemented with 25 mM HEPES, 27 mM NaHCO3, and 10% heat-inactivated human type O^+ serum, under 3% O2, 4% CO2, and 93% N2. 20 mM stock solutions of KNI-764 and KNI-727 and KNI-840 were prepared in DMSODMSO solutions were diluted 500 fold in medium, serially diluted in 0.2% DMSO in medium, then 100 μl aliquots were pipetted into microtiter plate wells. Provisional EC50 values were obtained in a survey of ten 5-fold dilutions yielding final concentrations (in quadruplicate) of 0.00001-20 μM. Plates included 8 wells of no drug controls (4 with and 4 without DMSO) and 4 wells in uninfected erythrocytes. […] The filters were washed four times with 3 ml water per sample spot, dried under a heat lamp, and counted in scintillation cocktail. Decays per minute values were downloaded and analyzed in order to yield the mean and standard deviation at each drug concentration. […]

[2] = biological target: T1, human Cathepsin D (Homo sapiens, UniProt P07339); experiment: Cathepsin D inhibition assay, hydrolysis of chromogenic substrate; assay type: biochemical
T1 construct: purchased
T1 sequence (P07339 65-412): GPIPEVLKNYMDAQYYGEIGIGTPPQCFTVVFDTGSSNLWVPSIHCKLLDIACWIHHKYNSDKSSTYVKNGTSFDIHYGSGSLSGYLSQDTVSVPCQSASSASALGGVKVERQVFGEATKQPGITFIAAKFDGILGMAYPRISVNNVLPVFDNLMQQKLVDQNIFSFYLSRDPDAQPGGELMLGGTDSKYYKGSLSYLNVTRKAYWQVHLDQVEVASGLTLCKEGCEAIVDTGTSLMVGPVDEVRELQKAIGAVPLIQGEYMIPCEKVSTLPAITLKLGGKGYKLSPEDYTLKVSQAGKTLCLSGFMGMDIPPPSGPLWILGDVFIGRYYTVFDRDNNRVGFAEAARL
Description: (§1) The specific activity of plasmepsin II from Plasmodium falciparum (Plm II) cloned in and purified from Escherchia coli and commercially available human Cathepsin D were measured by following the hydrolysis of the chromogenic substrate Ala-Leu-Glu-Arg-Thr-nPhe-Phe-Ser-Phe-Pro-Thr-OH (California Peptide Research Inc., Napa, Calif.). The decrease in absorbance upon hydrolysis is monitored at 300 nm. Typical Plasmepsin II preparations hydrolyze chromogenic substrate at 4-5 s^−1 at 37° C. The inhibition assays were performed at 25° C. in 10 mM sodium formate, 2% DMSO, pH 4.0. These pH conditions mimic the conditions in the food vacuole of the parasite. […] Inhibition constants (Ki) for the inhibitors are obtained at the desired temperature and solvent conditions by measuring the rate of substrate hydrolysis at increasing amounts of inhibitors. Exemplary results from three compounds (KNI-10033, KNI-10030 and KNI-10006) are shown in FIG. 7A-C, and the results obtained with all KNI compounds tested are given in Table 1.

[3] = biological target: T2, plasmepsin II from Plasmodium falciparum (Plm II) (Plasmodium falciparum, UniProt P46925); experiment: Plasmepsin II inhibition assay, hydrolysis of chromogenic substrate; assay type: biochemical; settings: for Discrimination Factor: Fold Selectivity for Plasmepsin II over Cathepsin D: ratio of the Ki for Cathepsin D to the Ki for Plasmepsin II
T2 construct: made in house; host or cells: Escherichia coli
T2 sequence (P46925 125-453): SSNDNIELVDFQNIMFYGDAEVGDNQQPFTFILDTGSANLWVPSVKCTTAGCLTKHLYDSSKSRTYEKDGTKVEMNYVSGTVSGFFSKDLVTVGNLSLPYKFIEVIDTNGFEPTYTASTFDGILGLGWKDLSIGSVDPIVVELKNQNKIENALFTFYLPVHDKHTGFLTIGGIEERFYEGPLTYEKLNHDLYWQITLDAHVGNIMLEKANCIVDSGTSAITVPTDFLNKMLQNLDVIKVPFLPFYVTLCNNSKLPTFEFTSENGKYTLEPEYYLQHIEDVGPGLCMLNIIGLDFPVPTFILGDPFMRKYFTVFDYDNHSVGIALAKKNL
Description: FIG. 7A-C. Inhibition of Plasmepsin II from Plasmodium falciparum by KNI-10033, KNI-10030 and KNI-10006 at 20° C. in 10 mM sodium citrate, 100 mM NaCl, 2% DMSO, pH 4.0. The inhibition constants are 3 nM, 11 nM and 0.5 rLM respectively.
as §1

[4] = 25° C., 10 mM sodium formate, 2% DMSO, pH 4.0, fit to competitive inhibition, read-out: Ki CatD
[5] = Table 2, read-out: Ki Cathepsin D
[6] = 25° C., 10 mM sodium formate, 2% DMSO, pH 4.0, fit to competitive inhibition, read-out: Ki Plm II
[7] = Table 2, read-out: Ki Plasmepsin II

Ki [2, 4] [nM] | Ki [2, 5] [nM] | inhibition constants against Plasmepsin II, in words [3] | Ki [3, 6] [nM] | Ki [3, 7] [nM] | Discrimination Factor: Fold Selectivity for Plasmepsin II over Cathepsin D [3] | discrimination factor / Cathepsin D selectivity ([3]; Plasmepsin II versus Cathepsin D, fold) | Ki ([3]; read-out: Ki (Plasmepsin II), unit inferred) [nM] | Structure (SMILES) | IC50 [1] [nM]
201 ± 20 | 201 | nanomolar and subnanomolar range | 30 ± 9 | 30 | ~7 |  |  | Cc1ccccc1CNC(=O)[C@H]1N(C(=O)[C@@H](O)[C@H](Cc2ccccc2)NC(=O)c2cccc(O)c2C)CSC1(C)C [KNI-764] | 10000
80 ± 90 | 80 | nanomolar and subnanomolar range | 20 ± 10 | 20 | 4 | 4 | ~20 | Cc1ccccc1CNC(=O)[C@H]1N(C(=O)[C@@H](O)[C@H](Cc2ccccc2)NC(=O)COc2c(C)cccc2C)CSC1(C)C [KNI-840] | 10000
1320 ± 152 |  |  | 572 ± 54 |  |  |  |  | Cc1ccc(CNC(=O)[C@H]2N(C(=O)[C@@H](O)[C@H](Cc3ccccc3)NC(=O)COc3c(C)cccc3C)CSC2(C)C)cc1 [KNI-10052] | 
360 ± 54 | 360 | nanomolar and subnanomolar range | 41 ± 7 | 41 | ~9 |  |  | Cc1cccc(CNC(=O)[C@H]2N(C(=O)[C@@H](O)[C@H](Cc3ccccc3)NC(=O)COc3c(C)cccc3C)CSC2(C)C)c1 [KNI-10053] | 
1640 ± 146 |  |  | 273 ± 41 |  |  |  |  | Cc1cccc(C)c1OCC(=O)NC(Cc1ccccc1)C(O)C(=O)N1CSC(C)(C)C1C(=O)NCc1ccc(O)cc1 (stereo not shown) [KNI-10054] | 

Further lines, the molecule ahead of its results:

Structure (SMILES) | Ki [2, 4] [nM] | Ki [2, 5] [nM] | inhibition constants against Plasmepsin II, in words [3] | Ki [3, 6] [nM] | Ki [3, 7] [nM] | Discrimination Factor: Fold Selectivity for Plasmepsin II over Cathepsin D [3] | discrimination factor / Cathepsin D selectivity ([3]; Plasmepsin II versus Cathepsin D, fold) | Ki ([3]; read-out: Ki (Plasmepsin II), unit inferred) [nM] | IC50 [1] [nM]
CC(C)(C)NC(=O)[C@H]1N(C(=O)[C@@H](O)[C@H](Cc2ccccc2)NC(=O)[C@H](Cc2ccccc2)NC(=O)COc2cccc3cnccc23)CSC1(C)C [KNI-10051] | 6510 ± 1220 |  |  | 186 ± 14 |  |  |  |  | 
CC(C)(C)NC(=O)C1N(C(=O)C(O)C(Cc2ccccc2)NC(=O)C(CCC(N)=O)NC(=O)COc2cccc3cnccc23)CSC1(C)C (stereo not shown) [KNI-10055] | 6280 ± 981 |  |  | 1170 ± 71 |  |  |  |  | 
CC(C)C(NC(=O)COc1ccccc1)C(=O)NC(Cc1ccccc1)C(O)C(=O)N1CSC(C)(C)C1C(=O)NC(C)(C)C (stereo not shown) [KNI-10056] | 1280 ± 161 |  |  | 1770 ± 154 |  |  |  |  | 
CCSC[C@H](NC(=O)COc1cccc2cnccc12)C(=O)N[C@@H](Cc1ccccc1)[C@H](O)C(=O)N1CSC(C)(C)[C@H]1C(=O)NC(C)(C)C [KNI-10057] | 5300 ± 633 |  |  | 428 ± 21 |  |  |  |  | 
